Earlier results as cited in patent US12653912B2 (SHENZHEN CHINA RESOURCES JIUCHUANG MEDICAL AND …, priority 2020, dated 2026).

Conditions: 75 mg/m^2, intravenous bolus injecting

## O=C1c2c(O)ccc(O)c2C(=O)c2c(NCCNCCO)ccc(NCCNCCO)c21 [mitoxantrone]
  AUC at the maximum tolerated total dosage: 560 to 1700 ng·h/mL
